Assay results published in patent publication US20150181863A1, “FLEXIBLE SUPERABSORBENT BINDER POLYMER AND ANTIMICROBIAL AGENT COMPOSITION” (EVONIK INDUSTRIES AG, priority 2013, published 2015).

Test system: Escherichia coli (ATCC 11229)/Staphylococcus aureus (ATCC 6538)/Pseudomonas aeruginosa (ATCC 27853)
Experiment: Zone of Inhibition Test, control line (organism not stated)
Type: cell-based
Conditions: 5 μg disk, n = 1; one value only, organism not assigned; 48 hours at ambient temperature
Description: Zone of inhibition testing with a variety of gram negative and gram positive bacteria was performed. The test material was brought into contact with a known amount of test microorganisms on an agar plate for 48 hours at ambient temperature. At the end of the contact time the diameter of inhibited colony formation (zone of inhibition) surrounding the test material was measured.
Referenced method AATCC 147-1998 “Antibacterial Activity Assessment of Textile Materials: Parallel Streak Method” with changes for following Zone of Inhibition procedure (AATCC is “American Association of Textile Chemists and Colorists” located in Research Triangle Park, N.C.):
Organisms used in this study were Escherichia coli (ATCC 11229)/Staphylococcus aureus (ATCC 6538)/Pseudomonas aeruginosa (ATCC 27853) (ATCC is “American Type Culture Collection” an organization in Manassas, Va.). Washed cells were diluted in Butterfield's Phosphate buffer to a target titer of approximately 10^8 colony forming units (CFU)/mL. Agar plates for testing were brought to room temperature prior to inoculation. A sterile applicator swab was placed in cell suspension and excess fluid was expressed using the side of the centrifuge tube. […] At the end of the contact time, the diameter of inhibited colony formation (zone of inhibition) surrounding the test material was measured.

Q: With `CN[C@H](CC(C)C)C(=O)N[C@H]1C(=O)N[C@@H](CC(N)=O)C(=O)N[C@H]2C(=O)N[C@H]3C(=O)N[C@H](C(=O)N[C@H](C(=O)O)c4cc(O)cc(O)c4-c4cc3ccc4O)[C@H](O)c3ccc(c(Cl)c3)Oc3cc2cc(c3O[C@@H]2O[C@H](CO)[C@@H](O)[C@H](O)[C@H]2O[C@H]2C[C@](C)(N)[C@H](O)[C@H](C)O2)Oc2ccc(cc2Cl)[C@H]1O` [Positive Control, vancomycin] as the compound, how does the “ZOI* (cm), single value for control” value read?
A: 1.9 cm
